# Experimental data taken from patent EP1388586A2, “Identification of broadly reactive DR restricted epitopes” (priority 1998, dated 1999).
# Where two headings read alike, the source gives them in different places. Ends that are not written are not given here.
# Key:
# DRB1*0301 (DR3w17) = biological target: T1, DRB1*0301 (DR3w17) (Homo sapiens, UniProt P01903+P01911, A100K/A102G/A103R/A169T/F55Y/I96L/K41T/L162R/M171V/P40S/Q125H/Q178H/Q39Y/R42S/S66N/T106N/T262R/W38E/Y61H); assay: Class II peptide-binding assay, DR3 (pH 4.5); conditions: Table VIII;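 note: unlabeled peptide competing with a radiolabeled probe peptide for binding to affinity-purified HLA-DR3, IC50 regarded as an approximation of Kd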
# T1 construct: used as sources of human HLA class II molecules; endogenous in cells; host or cells: MAT (EBV-transformed homozygous B cell line)
# Procedure: (§1) Class II peptide-binding assays. […] These assays were chosen as to be representative of the most common DR alleles.
# In appropriate stoichiometric conditions, the IC50 of an unlabeled test peptide to the purified DR is a reasonable approximation of the affinity of interaction (Kd). Peptides were tested in two to four completely independent experiments. […] Final detergent concentration in the incubation mixture was 0.05% Nonidet P-40. Assays were performed at pH 7.0 with the exception of DR3, which was performed at pH 4.5, and DRw53, which was performed at pH 5.0.
# (§2) All subsequent inhibition and direct binding assays were the performed using these class II concentrations.
# DRB1*0101 (DR1) = biological target: T2, DRB1*0101 (DR1) (Homo sapiens, UniProt P01903+P01911, A100R/D57E/F55L/F60I/F76Y/I96L/L162R/M171V/P40L/Q125E/R42F/V115G/Y59C); assay: Class II peptide-binding assay, DR1;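 note: competition assay: unlabeled test peptides inhibit binding of a radiolabeled probe peptide to purified DR, with half-maximal inhibition taken as an approximate dissociation constant Kd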
# T2 construct: used as sources of human HLA class II molecules; endogenous in cells; host or cells: LG2 (EBV-transformed homozygous B cell line)
# Procedure: as §1
# (§3) Radiolabeled peptides were iodinated using the chloramine-T method. […] In appropriate stoichiometric conditions, the IC50 of an unlabeled test peptide to the purified DR is a reasonable approximation of the affinity of interaction (Kd). Peptides were tested in two to four completely independent experiments. […] Final detergent concentration in the incubation mixture was 0.05% Nonidet P-40. Assays were performed at pH 7.0 with the exception of DR3, which was performed at pH 4.5, and DRw53, which was performed at pH 5.0.
# as §2
# DRB5*0101 (DR2w2a) = biological target: T3, DRB5*0101 (DR2w2a) (Homo sapiens, UniProt P01903+Q30154); assay: Class II peptide-binding assay, DR2w2a (DR2w2B2);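 note: competitive binding assay: unlabeled peptide inhibiting binding of a radiolabeled probe peptide to purified DR molecules at pH 7.0, IC50 approximating Kd, lower means stronger binding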
# T3 construct: used as sources of human HLA class II molecules; endogenous in cells; host or cells: GM3107 (EBV-transformed homozygous B cell line)
# Procedure: as §1, §3, §2
# DRB1*0401 (DR4w4) = biological target: T4, DRB1*0401 (DR4w4) (Homo sapiens, UniProt P01903+P01911, A100K/A169T/F76Y/I96L/K127E/L162R/M171V/N62H/P40V/Q125Y/R42H/S133A/S149N/S66Y/V115G/V209L/W38E); assay: Class II peptide-binding assay, DR4w4;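 note: unlabeled test peptides compete with a radiolabeled probe peptide for binding to affinity-purified HLA-DR, with DR amount titrated to capture a small fraction of label, IC50 approximating Kd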
# T4 construct: used as sources of human HLA class II molecules; endogenous in cells; host or cells: PREISS (EBV-transformed homozygous B cell line)
# DRB10404 (DR4w14) = biological target: T5, DRB10404 (DR4w14) (Homo sapiens, UniProt P01903+P01911, A100R/A169T/F76Y/I96L/K127E/L162R/M171V/N62H/P40V/Q125Y/R42H/S133A/S149N/S66Y/V209L/W38E); assay: Class II peptide-binding assay, DR4w14;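 note: unlabeled peptides compete with a radiolabeled probe for binding to affinity-purified HLA-DR, neutral pH, class II amount titrated to bind a small fraction of label, IC50 approximates Kd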
# T5 construct: used as sources of human HLA class II molecules; endogenous in cells; host or cells: BIN40 (EBV-transformed homozygous B cell line)
# DRB1*1101 (DR5w11) = biological target: T6, DRB1*1101 (DR5w11) (Homo sapiens, UniProt P01903+P01911, A100R/A169T/A87E/I96F/K41T/L162R/M171V/P40S/Q125H/Q178H/Q39Y/Q99D/R42S/S66Y/T262R/V115G/W38E); assay: Class II peptide-binding assay, DR5w11;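 note: competition by unlabeled test peptide against iodinated probe peptide binding to affinity-purified HLA-DR, class II amount titrated beforehand, half-maximal inhibitory concentration read as approximate Kd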
# T6 construct: used as sources of human HLA class II molecules; endogenous in cells; host or cells: SWEIG (EBV-transformed homozygous B cell line)
# Procedure: as §1, §3, §2
# DRB1*0701 (DR7) = DRB1*0701 (DR7) (Homo sapiens, UniProt P01903+P01911, A100R/A102G/A103Q/D57E/D86V/E43K/F76Y/K127E/L162R/M171V/P40G/Q125H/Q99D/R33Q/R42Y/R54Q/S133A/S66F/T210M/V115G/Y107V/Y59L/Y89S); assay: Class II peptide-binding assay, DR7;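 note: unlabeled peptides compete with an iodinated probe peptide for binding to affinity-purified HLA-DR at neutral pH, DR amount titered to bind a small tracer fraction, IC50 approximating Kd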
# [1] = read-out: In IC50 Format DR3 nM, values in parentheses read as lower bounds
# [2] = read-out: DR1 nM (In IC50 Format), purified HLA DR1
# [3] = read-out: DR2w2B2 nM (In IC50 Format), purified HLA DR2w2β2
# [4] = read-out: DR4w4 nM (In IC50 Format), purified HLA DR4w4
# [5] = read-out: DR4w14 nM (In IC50 Format), purified HLA DR4w14
# [6] = read-out: DR5w11 nM (In IC50 Format), purified HLA DR5w11
# [7] = read-out: DR7 nM (In IC50 Format), purified HLA DR7
# T6 sequence (P01903 26-254, other chains not shown): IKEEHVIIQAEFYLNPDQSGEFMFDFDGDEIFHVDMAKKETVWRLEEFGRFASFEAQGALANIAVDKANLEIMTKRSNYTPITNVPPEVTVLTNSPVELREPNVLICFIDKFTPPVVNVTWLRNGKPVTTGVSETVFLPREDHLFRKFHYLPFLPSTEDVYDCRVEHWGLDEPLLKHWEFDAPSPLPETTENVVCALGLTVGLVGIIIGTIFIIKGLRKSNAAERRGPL
# T1 sequence (P01903 26-254, other chains not shown): as above
Compound,IC50 (DRB1*0101 (DR1); [2]) [µM],IC50 (DRB5*0101 (DR2w2a); [3]) [µM],IC50 (DRB1*0401 (DR4w4); [4]) [µM],IC50 (DRB10404 (DR4w14); [5]) [µM],IC50 (DRB1*1101 (DR5w11); [6]) [µM],IC50 (DRB1*0701 (DR7); [7]) [µM],also measured
C[C@H](NC(=O)[C@H](CCC(=O)O)NC(=O)[C@H](CC(=O)O)NC(=O)[C@@H]1CCCN1C(=O)CNC(=O)[C@@H]1CCCN1C(=O)[C@H](CC(=O)O)NC(=O)[C@H](CCC(=O)O)NC(=O)[C@@H](NC(=O)[C@H](Cc1ccccc1)NC(=O)[C@H](Cc1c[nH]c2ccccc12)NC(=O)[C@H](CCC(N)=O)NC(=O)[C@@H](N)CCC(=O)O)[C@@H](C)O)C(=O)N1CCC[C@H]1C(=O)N[C@@H](CCCNC(=N)N)C(=O)O [Peptide 39.0412],–,–,–,–,–,–,IC50 (DRB1*0301 (DR3w17); read-out: In IC50 Format DR3): > 120 µM
CC(C)C[C@H](NC(=O)[C@@H]1CCCN1C(=O)CNC(=O)[C@@H](N)CCCCN)C(=O)N1CCC[C@H]1C(=O)N[C@H](C(=O)N[C@@H](CC(=O)O)C(=O)N[C@@H](CS)C(=O)N[C@@H](CS)C(=O)N[C@@H](Cc1c[nH]cn1)C(=O)N[C@@H](CCC(=O)O)C(=O)N[C@@H](CCC(N)=O)C(=O)N[C@@H](CS)C(=O)N[C@@H](C)C(=O)N[C@@H](C)C(=O)O)[C@@H](C)O [Peptide 39.0344],–,–,–,–,–,–,IC50 (DRB1*0301 (DR3w17); [1]): > 111 µM
SDVFDGDLGMGAAKG [Peptide 39.0378],–,–,–,–,–,–,IC50 (DRB1*0301 (DR3w17); [1]): > 120 µM
YSRFQSQTTLKAKT-NH2 [Peptide 717.38],0.0061,0.274,0.01,0.0152,0.0167,6.25,–
YAAFQSQTTLKAKT-NH2 [Peptide 717.30],0.0087,0.105,0.0076,0.0075,0.0222,4.17,–
YARFQSQSTLKAKT-NH2 [Peptide 717.16],0.006,0.105,0.0018,0.0081,0.004,3.57,–
YARFQSATTLKAKT-NH2 [Peptide 717.54],0.0046,0.0606,0.0041,0.0072,0.0095,0.676,–
YARFQSQTVLKAKT-NH2 [Peptide 717.32],0.0076,0.4,0.0057,0.0104,0.0143,0.151,–
CC[C@H](C)[C@H](NC(=O)CNC(=O)[C@@H](NC(=O)[C@H](Cc1ccccc1)NC(=O)[C@H](CCCCN)NC(=O)[C@H](CO)NC(=O)[C@H](CC(N)=O)NC(=O)[C@H](C)NC(=O)[C@H](CCCCN)NC(=O)[C@@H](NC(=O)[C@H](Cc1ccc(O)cc1)NC(=O)[C@@H](N)CCC(N)=O)[C@@H](C)CC)[C@@H](C)CC)C(=O)N[C@H](C(=O)N[C@@H](CCC(=O)O)C(=O)N[C@@H](CC(C)C)C(=O)N[C@@H](CCCCN)C(=O)N[C@@H](CCCCN)C(N)=O)[C@@H](C)O [Peptide 812.01],–,–,–,–,–,–,"IC50 (DRB1*0101 (DR1); purified HLA DR1, read-out: DR1 nM (In IC50 Format)): 0.0806 µM; IC50 (DRB5*0101 (DR2w2a); purified HLA DR2w2β2, read-out: DR2w2B2 nM (In IC50 Format)): 0.016 µM; IC50 (DRB1*0401 (DR4w4); purified HLA DR4w4, read-out: DR4w4 nM (In IC50 Format)): 0.409 µM; IC50 (DRB10404 (DR4w14); purified HLA DR4w14, read-out: DR4w14 nM (In IC50 Format)): 16.7 µM; IC50 (DRB1*1101 (DR5w11); purified HLA DR5w11, read-out: DR5w11 nM (In IC50 Format)): 0.0286 µM; IC50 (DRB1*0701 (DR7); purified HLA DR7, read-out: DR7 nM (In IC50 Format)): 0.357 µM"
YARFQSQETLKAKT-NH2 [Peptide 717.17],0.006,0.87,0.0052,0.025,0.0182,1.92,–
YARFQSQTYLKAKT-NH2 [Peptide 717.33],1.67,0.256,0.187,8.33,1.54,0.641,–
EALVRQGLAKVAYVYKPNN [NASE 101-],–,–,–,–,–,–,"IC50 (DRB1*0101 (DR1); read-out: DR1 nM, Table VIII, In IC50 Format): 0.0022 µM; IC50 (DRB5*0101 (DR2w2a); read-out: DR2w2B2 nM, Table VIII, In IC50 Format): 0.154 µM; IC50 (DRB1*0401 (DR4w4); read-out: DR4w4 nM, Table VIII, In IC50 Format): 0.978 µM; IC50 (DRB10404 (DR4w14); read-out: DR4w14 nM, Table VIII, In IC50 Format): 1.14 µM; IC50 (DRB1*1101 (DR5w11); read-out: DR5w11 nM, Table VIII, In IC50 Format): 0.1 µM; IC50 (DRB1*0701 (DR7); read-out: DR7 nM, Table VIII, In IC50 Format): 0.454 µM"
YARFQSQTSLKAKT-NH2 [Peptide 717.31],0.0045,0.143,0.0051,0.0106,0.02,0.676,–
